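How tested: cells in 96-well plates exposed to compound for 48 hours at five concentrations. At the TGI there is no net growth.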
How the values were obtained:
Test in all cases: NCI-60 cell line screen, 48 h
786-0 renal = system: 786-0 renal
DLD-1 colon = system: DLD-1 colon
DMS 114 small cell lung = system: DMS 114 small cell lung
DMS 273 small cell lung = system: DMS 273 small cell lung
EKVX NSCLC = system: EKVX NSCLC
HCT-15 colon = system: HCT-15 colon
M19-MEL melanoma = system: M19-MEL melanoma
NCI-H23 lung = system: NCI-H23 lung
OVCAR-4 ovarian = system: OVCAR-4 ovarian
SF-268 CNS = system: SF-268 CNS
SF-295 CNS = system: SF-295 CNS
SK-MEL-28 melanoma = system: SK-MEL-28 melanoma
U251 CNS = system: U251 CNS
UACC-62 melanoma = system: UACC-62 melanoma
DU-145 prostate = system: DU-145 prostate
MCF7 breast = system: MCF7 breast
T-47D breast = system: T-47D breast
TK-10 renal = system: TK-10 renal
SR leukemia = system: SR leukemia
HOP-18 NSCLC = system: HOP-18 NSCLC

Structure (SMILES)	TGI (786-0 renal) [µM]	TGI (DLD-1 colon) [µM]	TGI (DMS 114 small cell lung) [µM]	TGI (DMS 273 small cell lung) [µM]	TGI (EKVX NSCLC) [µM]	TGI (HCT-15 colon) [µM]	TGI (M19-MEL melanoma) [µM]	TGI (NCI-H23 lung) [µM]	TGI (OVCAR-4 ovarian) [µM]	TGI (SF-268 CNS) [µM]	TGI (SF-295 CNS) [µM]	TGI (SK-MEL-28 melanoma) [µM]	TGI (U251 CNS) [µM]	TGI (UACC-62 melanoma) [µM]	TGI (DU-145 prostate) [µM]	TGI (MCF7 breast) [µM]	TGI (T-47D breast) [µM]	TGI (TK-10 renal) [µM]	TGI (SR leukemia) [µM]	TGI (HOP-18 NSCLC) [µM]
CC(=O)Oc1ccccc1	> 100	> 100	> 100	> 100	> 100	> 100	> 100	> 100	> 100	> 100	> 100	> 100	> 100	> 100						
CC(=O)Nc1ccc2c(c1)/C(=C\c1ccc([N+](C)(C)C)cc1)c1ccccc1-2	> 100				78.6	> 100		> 100	> 100	> 100	> 100	> 100	> 100	> 100	> 100	> 100	90.1	> 100		
COc1ccccc1/C=C/c1ccnc2ccccc12	27.7				23	25		27.9	25.4	29.4	27.2	31.1	24.2	24.5	30.8	17.5		30.9	35.7	
Cc1c2ccccc2c(C2C3C(=O)N(c4ccc(Br)cc4)C(=O)C3ON2C(C(N)=O)c2ccccc2)c2ccccc12 (configuration not stated)	33.1				31.7	18.7		26.9	> 100	> 100	58.5	74.6	8.94	40.4	26.7	24.4	36.4			
Cc1ccc(O)c(Cc2nc3ccccc3nc2-c2cccc(Cl)c2)c1	> 100				> 100	46.1		> 100	65.8	> 100	> 100		> 100	> 100	> 100	> 100	> 100	> 100	> 100	
COc1cc(C(=O)NC2CCc3cc(OC)c(OC)c(OC)c3-c3ccc(OC)c(=O)cc32)cc(OC)c1OC (configuration not stated)	70.9	> 100	0.1	> 100	> 100	> 100	> 100	12.8	> 85.1	42.4	13	> 100	33.4	45.9		> 100	> 100	> 91.6	> 100	> 100
c1ccc2c(CSCc3cccc4ccccc34)cccc2c1	> 100				> 100	> 100		> 100	> 100	> 100	> 100	> 100	> 100	> 100	> 100		> 100	> 100	> 100	
O=C(COc1ccc(Cl)c(Cl)c1)Nc1ccc[n+](Cc2ccc(S(=O)(=O)F)c(Cl)c2)c1	> 100				> 100	> 100		> 100	> 100	> 100	> 100	> 100	> 100	> 100	> 100	> 100	> 100	> 100	> 100	

From PubChem BioAssay (NCI)
